From paper PMC10847966 (Nature chemical biology, 2023)
pIC50: −log10 of the molar value.

Tests used:
MthK [1] = target: MthK (Methanothermobacter thermautotrophicus, UniProt O27564, A90L); experiment: stopped-flow Tl+ flux assay in liposomes; assay type: biochemical
MthK [2] = target: MthK (Methanothermobacter thermautotrophicus, UniProt O27564, V91F); experiment: stopped-flow Tl+ flux assay in liposomes; assay type: biochemical
MthK [3] = target: MthK (Methanothermobacter thermautotrophicus, UniProt O27564, A88F); experiment: single-particle cryo-EM structure; assay type: binding

SMILES: CCCCC[N+](CCCCC)(CCCCC)CCCCC [TPeA]
- pIC50 (MthK [1]): 5.01
- pIC50 (MthK [2]): 5.69
- single-particle cryo-EM structure (MthK [3]): Processing workflow for A88F-TPeA dataset, TPeA densities in the maps with C4 symmetry (mesh), TPeA molecule (stick)
